This experiment has as its system methane production from ruminal fluid. The experiment in a line: in vitro assay of inhibition of methane production from ruminal fluid. It is filed as cell-based, steers (pooled rumen fluid). Particulars: 15-16 hours; for IC50: in vitro, diluted rumen fluid with dried ground hay, pH 6.9-7.0, 39° C., read-out: ED50, concentration of the test compound required to produce a 50% reduction in methane production; for inhibition at 1 µg/mL: at 1 μg./ml.; for inhibition at 1 µg/mL / inhibition at 3 µg/mL: in vitro rumen fluid, 39° C.; for inhibition at 3 µg/mL: at 3 μg./ml., read-out: % Methane Inhibition (compounds indicated by *). Here is the method: Rumen fluid is collected on a regular routine basis from two steers, which are fed on the same hay-plus-concentrate diet. Sampling time is standardised as far as possible, and the fluid from the two animals is pooled on a 50/50 basis. Large particulate matter is removed by filtering the pooled fluid through four layers of muslin cloth. The filtrate is then diluted in the ratio of one volume of filtrate to three volumes of an artificial rumen fluid (prepared as described by G. L. Bales et al., Journal of Dairy Science, 1976, volume 59, page 1850, but omitting acetic acid), and the pH of the mixture is adjusted to 6.9-7.0 with saturated aqueous sodium carbonate solution. Aliquots (50 ml.) of this mixture are dispensed into 100 ml. conical flasks containing dried ground hay (0.5 g.), and each flask is used to test a test compound at a particular concentration.
The test compound is added to the conical flask as a solution in ethanol, the flask is flushed with carbon dioxide gas, stoppered with a suba-seal, and incubated at 39° C. for 15-16 hours. After one hour, a narrow bore needle is inserted through the suba-seal to relieve the gas pressure, and the needle is withdrawn 30 minutes before the incubation is ended. Fermentation is then stopped by placing the flask in ice, and after 15 minutes cooling, the gas over the liquid is analysed for methane by gas chromatography, and the concentration of the test compound required to produce a 50% reduction in methane production (ED50 in μg./ml.) is calculated.
The test of methane inhibition described in Example 12 was repeated for various other compounds, to give the results shown below. The results are expressed as the percentage inhibition of methane production caused by 1 μg./ml. of a test compound, except for those compounds indicated by *, for which 3 μg./ml. was used.

The structures appear in SMILES notation. Converted amounts (≈) assume the structure as drawn.

Turning to `Cc1ccc2c(c1)C(=O)NC(C(Cl)(Cl)Cl)O2` (centres unmarked) [drawing 6; R3=CH3; R5=H], the IC50 is 1 µg/mL (≈ 3.56 µM).

For the compound `CN1C(=O)c2ccccc2N(C)C1C(Cl)(Cl)Cl` (centres unmarked) [drawing 5; R3=H; R5=CH3; R6=CH3], the IC50 is 1 µg/mL (≈ 3.41 µM).

For `COc1ccc2c(c1)C(=O)N(C)C(C(Cl)(Cl)Cl)O2` (centres unmarked) [drawing 6; R3=CH3 O; R5=CH3, 3,4-dihydro-6-methoxy-3-methyl-2-trichloromethyl-2H-benzo[e]-[1,3]-oxazin-4-one], the IC50 was 3 µg/mL (≈ 9.66 µM).

For the compound `O=C1NC(C(Cl)(Cl)Cl)Oc2ccc(Br)cc21` (centres unmarked) [drawing 6; R3=Br; R5=H], the IC50 came to 0.5 µg/mL (≈ 1.45 µM).

Consider `CCN(CC)C(=O)c1ccc2c(c1)C(=O)NC(C(Cl)(Cl)Cl)O2` (centres unmarked) [drawing 6; R3=(C2 H5)2 N . CO; R5=H, 3,4-dihydro-N,N-diethyl-4-oxo-2-trichloromethyl-2H-benzo[e]-[1,3]-oxazine-6-carboxamide], for which the IC50 is 0.3 µg/mL (≈ 0.82 µM).

In the case of `O=C1NC(C(Cl)(Cl)Cl)Nc2ccc(Cl)cc21` (centres unmarked) [drawing 5; R3=Cl; R5=H; R6=H], the IC50 came to 0.3 µg/mL (≈ 1 µM).

With `Cc1ccc(S(=O)(=O)Nc2ccc3c(c2)C(=O)NC(C(Cl)(Cl)Cl)O3)cc1` (centres unmarked) [3,4-dihydro-6-tosylamino-2-trichloromethyl-2H-benzo[e]-[1,3]-oxazin-4-one], at 1 µg/mL the inhibition was 94%.

`CCCOC(=O)C1OC(C(Cl)(Cl)Cl)Nc2ccccc21` (centres unmarked) [drawing 9; R1=H; R3=H; R11=n-C3 H7 O . CO, propyl 1,2-dihydro-2-trichloromethyl-4H-benzo[d]-[1,3]-oxazine-4-carboxylate]: the inhibition (commonly how much of the control response was suppressed) at 1 µg/mL came out at 31%.

For the compound `O=C1NC(C(Cl)(Cl)Cl)Oc2ccc(OCc3ccccc3)cc21` (centres unmarked) [drawing 6; R3=C6 H5 . CH2 O; R5=H, 6-benzyloxy-3,4-dihydro-2-trichloromethyl-2H-benzo[e]-[1,3]-oxazin-4-one], the IC50 was 10 µg/mL (≈ 26.8 µM).

Compound `O=Cc1ccc2c(c1)C(=O)NC(C(Cl)(Cl)Cl)O2` (centres unmarked) [drawing 8; R1=H; R3=CHO; R5=H] showed an inhibition at 1 µg/mL of 47%.

`COc1ccc2c(c1)C(=O)NC(C(Cl)(Cl)Cl)O2` (centres unmarked) [drawing 6; R3=CH3 O; R5=H, 3,4-dihydro-6-methoxy-2-trichloromethyl-2H-benzo[e]-[1,3]-oxazin-4-one]: the IC50 amounted to 0.5 µg/mL (≈ 1.69 µM).

Turning to `CC(C)OC(=O)C1OC(C(Cl)(Cl)Cl)Nc2ccccc21` (centres unmarked) [drawing 9; R1=H; R3=H; R11=i-C3 H7 O . CO, isopropyl 1,2-dihydro-2-trichloromethyl-4H-benzo[d]-[1,3]-oxazine-4-carboxylate], the inhibition at 1 µg/mL is 37%.

In the case of `CCCCOC(=O)c1ccc2c(c1)C(=O)NC(C(Cl)(Cl)Cl)O2` (centres unmarked) [drawing 6; R3=CH3 (CH2)3 O . CO; R5=H, butyl 3,4-dihydro-4-oxo-2-trichloromethyl-2H-benzo[e]-[1,3]-oxazine-6-carboxylate], the IC50 is 1 µg/mL (≈ 2.73 µM).

In the case of `ClC(Cl)(Cl)C1Nc2ccccc2CO1` (centres unmarked) [drawing 7; R3=H, 1,2-dihydro-2-trichloromethyl-4H-benzo[d]-[1,3]-oxazine], the IC50 is 1 µg/mL (≈ 3.96 µM).

Turning to `COC(=O)c1ccc2c(c1)C(=O)NC(C(Cl)(Cl)Cl)O2` (centres unmarked) [drawing 6; R3=CH3 O . CO; R5=H, methyl 3,4-dihydro-4-oxo-2-trichloromethyl-2H-benzo[e]-[1,3]-oxazine-6-carboxylate], the IC50 came out at 3 µg/mL (≈ 9.24 µM).

Take `O=C1NC(C(Cl)(Cl)Cl)Oc2ccccc21` (centres unmarked) [drawing 6; R3=H; R5=H, 3,4-dihydro-2-trichloromethyl-2H-benzo[e]-[1,3]-oxazin-4-one]: the IC50 was determined as 0.5 µg/mL (≈ 1.88 µM).

Turning to `CC(=O)Nc1ccc2c(c1)C(=O)NC(C(Cl)(Cl)Cl)O2` (centres unmarked) [drawing 8; R1=H; R3=CH3 CONH; R5=H, 6-acetamido-3,4-dihydro-2-trichloromethyl-2H-benzo[e]-[1,3]-oxazin-4-one], the inhibition at 1 µg/mL was 96%.

Consider `CCC(=O)Oc1ccc2c(c1)C(=O)NC(C(Cl)(Cl)Cl)O2` (centres unmarked) [drawing 6; R3=C2 H5 CO . O; R5=H, 3,4-dihydro-6-propionyloxy-2-trichloromethyl-2H-benzo[e]-[1,3]-oxazin-4-one], for which the IC50 is 0.3 µg/mL (≈ 0.886 µM).

For `CN1c2ccccc2C(=O)NC1C(Cl)(Cl)Cl` (centres unmarked) [drawing 5; R3=H; R5=H; R6=CH3], the IC50 was 0.3 µg/mL (≈ 1.07 µM).

`O=C1NC(C(Cl)(Cl)Cl)Oc2ccc(S(=O)(=O)O)cc21` (centres unmarked) [drawing 8; R1=H; R3=SO3 H; R5=H] returned an inhibition at 1 µg/mL of 11%.

With `O=C(O)c1ccc2c(c1)C(=O)NC(C(Cl)(Cl)Cl)N2` (centres unmarked) [drawing 10; R3=COOH; R5=H; R6=H, 1,2-dihydro-4-oxo-2-trichloromethylquinazoline-6-carboxylic acid], the inhibition at 3 µg/mL turned out to be 5%.

For `ClC(Cl)(Cl)C1Nc2ccc(I)cc2CO1` (centres unmarked) [drawing 7; R3=I], the IC50 came out at 1 µg/mL (≈ 2.64 µM).

In the case of `CCC(=O)Oc1ccc2c(c1)C(=O)N(C(=O)CC)C(C(Cl)(Cl)Cl)O2` (centres unmarked) [drawing 6; R3=C2 H5 CO . O; R5=C2 H5 CO, 3,4-dihydro-3-propionyl-6-propionyloxy-2-trichloromethyl-2H-benzo[e]-[1,3]-oxazin-4-one], the IC50 was 0.3 µg/mL (≈ 0.76 µM).

Take `O=C1NC(C(Cl)(Cl)Cl)Oc2ccc(NCc3ccc(Cl)cc3)cc21` (centres unmarked) [6-p-chlorobenzylamino-3,4-dihydro-2-tichloromethyl-2H-benzo[e]-[1,3]-oxazin-4l-one]: the inhibition at 3 µg/mL was 86%.

The compound `CCOC(=O)C1OC(C(Cl)(Cl)Cl)Nc2ccccc21` (centres unmarked) [drawing 9; R1=H; R3=H; R11=C2 H5 O . CO, ethyl 1,2-dihydro-2-trichloromethyl-4H-benzo[d]-[1,3]oxazine-4-carboxylate] yielded an inhibition at 1 µg/mL of 24%.

`Clc1ccc2c(c1)COC(C(Cl)(Cl)Cl)N2` (centres unmarked) [drawing 9; R1=H; R3=Cl; R11=H, 6-chloro-1,2-dihydro-2-trichloromethyl-4H-benzo[d]-[1,3]-oxazine] displayed an inhibition at 1 µg/mL of 100%.

On to `CCOC(=O)c1ccc2c(c1)C(=O)NC(C(Cl)(Cl)Cl)N2` (centres unmarked) [drawing 10; R3=C2 H5 O . CO; R5=H; R6=H, ethyl 1,2-dihydro-4-oxo-2-trichloromethylquinazoline-6-carboxylate], for which the inhibition at 3 µg/mL worked out at 71%.

On to `CC(=O)Oc1ccc2c(c1)C(=O)N(C(C)=O)C(C(Cl)(Cl)Cl)O2` (centres unmarked) [drawing 6; R3=CH3 CO . O; R5=CH3 CO, 6-acetoxy-3-acetyl-3,4-dihydro-2-trichloromethyl-2H-benzo[e]-[1,3]-oxazin-4-one], for which the IC50 turned out to be 1 µg/mL (≈ 2.73 µM).

`O=C1NC(C(Cl)(Cl)Cl)Oc2ccc(C=NO)cc21` (centres unmarked) [drawing 8; R1=H; R3=HO . N:CH; R5=H, 3,4-dihydro-6-hydroxyiminomethyl-2-trichloromethyl-2-H-benzo[e]-[1,3]-oxazin-4-one]: 1 µg/mL produced 41% inhibition.

Regarding `O=C(O)c1ccc2c(c1)C(=O)NC(C(Cl)(Cl)Cl)O2` (centres unmarked) [drawing 6; R3=HO . CO; R5=H, 3,4-dihydro-4-oxo-2-trichloromethyl-2H-benzo[e]-[1,3]-oxazine-6-carboxylicacid], the IC50 came out at 0.3 µg/mL (≈ 0.966 µM).

In the case of `O=C(Oc1ccc2c(c1)C(=O)NC(C(Cl)(Cl)Cl)O2)c1ccc(Cl)cc1` (centres unmarked) [drawing 6; R3=p-Cl . C6 H4 CO . O; R5=H, 6-p-chlorobenzoyloxy-3,4-dihydro-2-trichloromethyl-2H-benzo[e]-[1,3]-oxazin-4-one], the IC50 was 1 µg/mL (≈ 2.37 µM).

The compound `O=C(O)C1OC(C(Cl)(Cl)Cl)Nc2ccccc21` (centres unmarked) [drawing 9; R1=H; R3=H; R11=COOH, 1,2-dihydro-2-trichloromethyl-4H-benzo-[d]-[1,3]-oxazine-4-carboxylic acid] yielded an inhibition at 1 µg/mL of 14%.

For `O=C(O)c1cc(C(=O)O)c2c(c1)C(=O)NC(C(Cl)(Cl)Cl)O2` (centres unmarked) [drawing 8; R1=COOH; R3=COOH; R5=H, 3,4-dihydro-4-oxo-2-trichloromethyl-2H-benzo[e]-[1,3]-oxazine-6,8-dicarboxylic acid], the inhibition at 1 µg/mL was determined as 38%.

The compound `CC(=O)Oc1ccc2c(c1)COC(C(Cl)(Cl)Cl)N2` (centres unmarked) [drawing 9; R1=H; R3=CH3 CO . O; R11=H, 6-acetoxy-1,2-dihydro-2-trichloromethyl-4H-benzo[d]-[1,3]-oxazine] had an inhibition at 1 µg/mL of 30%.

As to `CN1C(=O)c2ccccc2NC1C(Cl)(Cl)Cl` (centres unmarked) [drawing 5; R3=H; R5=CH3; R6=H], the IC50 was 1 µg/mL (≈ 3.58 µM).

Take `COC(=O)C1OC(C(Cl)(Cl)Cl)Nc2ccccc21` (centres unmarked) [drawing 9; R1=H; R3=H; R11=CH3 O . CO, methyl 1,2-dihydro-2-trichloromethyl-4H-benzo[d]-[1,3]-oxazine-4-carboxylate]: the inhibition at 1 µg/mL is 46%.

As for `CCCNC(=O)c1ccc2c(c1)C(=O)NC(C(Cl)(Cl)Cl)O2` (centres unmarked) [drawing 6; R3=CH3 (CH2)2 NH . CO; R5=H, 3,4-dihydro-4-oxo-N-propyl-2-trichloromethyl-2H-benzo[e]-[1,3]-oxazine-6-carboxamide], the IC50 came out at 0.3 µg/mL (≈ 0.853 µM).

In turn, `Cc1cccc2c1NC(C(Cl)(Cl)Cl)OC2` (centres unmarked) [drawing 9; R1=CH3; R3=H; R11=H, 1,2-dihydro-8-methyl-2-trichloromethyl-4H-benzo[d]-[1,3]-oxazine] came in with an inhibition at 1 µg/mL of 100%.

Source of the values: US4268510A, “1,3-Benzoxazine trichloromethyl derivatives, compositions and use” (Imperial Chemical Industries Limited, priority 1978, dated 1981).
